Source: PMC8954523 (Pharmaceutics, 2022)

What was measured:
[1] = Dissolution and solvation thermodynamic functions (van't Hoff; solubility minus sublimation); type: physicochemical
Method: The dissolution thermodynamic parameters on the standard state were determined using mole fraction unitary units. […] Since the resulting solutions are very dilute, and their densities are very close to those of the pure solvents. The density values of the pure solvents were used in calculations (Table S1). […] The temperature dependences of the experimental solubility were treated mathematically by the van't Hoff equation, and the apparent solution enthalpies ΔHsol0 were determined as follows:(3) ∂(lnX2)/∂T=ΔHsol0/RT^2 […] Next, the apparent solution entropies ΔSsol0 were derived by the equation:(5) ΔGsol0=ΔHso[…] The solvation of one mole of the solute molecules in the solvent can be defined as the total change of the standard thermodynamic functions ( ΔGsolv0 , ΔHsolv0 , ΔSsolv0 ) of the compound upon transferring it from the gaseous phase (ideal gas; single molecules without interaction) into the solvent. The transfer process can be presented as the difference between the dissolution and sublimation thermodynamic functions by:(6) ΔYsolv0=ΔYso[…] where ΔY^0 is the standard change of any of the thermodynamic functions (ΔG^0, ΔH^0, ΔS^0) of solvation ( ΔYsolv0 ), dissolution ( ΔYsol0 ) or sublimation ( ΔYsubo ).

[2] = Hypothetical transfer thermodynamic functions from solvation functions; type: physicochemical; settings: water → n-hexane
[3] = Table S6, 1-octanol, all studied temperatures
[4] = Table S6, ethanol, all studied temperatures
[5] = Table S6, n-hexane, all studied temperatures
[6] = Table S6, water, all studied temperatures

## CC(O)(CS(=O)(=O)c1ccc(F)cc1)C(=O)Nc1ccc(C#N)c(C(F)(F)F)c1 (stereo not drawn) [BCL, bicalutamide]
[1]; 1-octanol, 298.15 K
  TΔSsol0: 0.263 kcal/mol
  ΔGsol0: 4.9 kcal/mol
  ΔHsol0: 5.16 ± 0.096 kcal/mol
  ΔSsol0: 3.7 ± 3.6 J∙mol^−1·K^−1
  ζHsolv: 63.3%
  ζTSsolv: 36.7%
  −TΔSsolv0: 14.3 kcal/mol
  −ΔGsolv0: 10.3 kcal/mol
  −ΔHsolv0: 24.64 kcal/mol
  −ΔSsolv0: 200.9 J∙mol^−1·K^−1
[1]; Table S6, 1-octanol, 293.15 K
  TΔSsol0: 0.265 kcal/mol
  ΔGsol0: 4.897 kcal/mol
  ΔSsol0: 3.79 J∙mol-1·K-1
  ζTSsolv: 36.74%
  −TΔSsolv0: 14.31 kcal/mol
  −ΔGsolv0: 10.33 kcal/mol
[1]; Table S6, 1-octanol, 298.15 K
  TΔSsol0: 0.265 kcal/mol
  ΔGsol0: 4.897 kcal/mol
  ΔSsol0: 3.73 J∙mol-1·K-1
  ζTSsolv: 36.74%
  −TΔSsolv0: 14.31 kcal/mol
  −ΔGsolv0: 10.33 kcal/mol
  −ΔSsolv0: 200.87 J∙mol-1·K-1
[1]; Table S6, 1-octanol, 303.15 K
  TΔSsol0: 0.275 kcal/mol
  ΔGsol0: 4.888 kcal/mol
  ΔSsol0: 3.81 J∙mol-1·K-1
  ζHsolv: 63.27%
  ζTSsolv: 36.73%
  −TΔSsolv0: 14.3 kcal/mol
  −ΔGsolv0: 10.34 kcal/mol
[1]; Table S6, 1-octanol, 308.15 K
  TΔSsol0: 0.272 kcal/mol
  ΔGsol0: 4.89 kcal/mol
  ΔSsol0: 3.70 J∙mol-1·K-1
  ζHsolv: 63.27%
  ζTSsolv: 36.73%
  −TΔSsolv0: 14.31 kcal/mol
  −ΔGsolv0: 10.33 kcal/mol
[1]; Table S6, 1-octanol, 313.15 K
  TΔSsol0: 0.287 kcal/mol
  ΔGsol0: 4.876 kcal/mol
  ΔSsol0: 3.82 J∙mol-1·K-1
  ζHsolv: 63.29%
  −ΔSsolv0: 190.96 J∙mol-1·K-1
[1]; [3]
  ΔHsol0: 5.16 kcal/mol
  −ΔHsolv0: 24.64 kcal/mol
[1]; Table S6, ethanol, 293.15 K
  TΔSsol0: 2.964 kcal/mol
  ΔGsol0: 3.944 kcal/mol
  ΔSsol0: 42.29 J∙mol-1·K-1
  ζHsolv: 66.34%
[1]; Table S6, ethanol, 298.15 K
  TΔSsol0: 3.023 kcal/mol
  ΔGsol0: 3.872 kcal/mol
  ΔSsol0: 42.43 J∙mol-1·K-1
  ζTSsolv: 33.54%
  −ΔGsolv0: 11.34 kcal/mol
[1]; Table S6, ethanol, 303.15 K
  TΔSsol0: 3.081 kcal/mol
  ΔGsol0: 3.826 kcal/mol
  ΔSsol0: 42.52 J∙mol-1·K-1
  ζTSsolv: 33.43%
  −TΔSsolv0: 11.5 kcal/mol
  −ΔGsolv0: 11.4 kcal/mol
  −ΔSsolv0: 158.70 J∙mol-1·K-1
[1]; Table S6, ethanol, 308.15 K
  TΔSsol0: 3.136 kcal/mol
  ΔGsol0: 3.772 kcal/mol
  ΔSsol0: 42.56 J∙mol-1·K-1
  ζTSsolv: 33.32%
  −TΔSsolv0: 11.44 kcal/mol
  −ΔGsolv0: 11.45 kcal/mol
[1]; Table S6, ethanol, 313.15 K
  TΔSsol0: 3.162 kcal/mol
  ΔGsol0: 3.745 kcal/mol
  ΔSsol0: 42.24 J∙mol-1·K-1
  ζTSsolv: 33.27%
  −TΔSsolv0: 11.42 kcal/mol
  −ΔGsolv0: 11.48 kcal/mol
[1]; [4]
  ΔHsol0: 6.91 kcal/mol
  −ΔHsolv0: 22.9 kcal/mol
[1]; Table S6, n-hexane, 293.15 K
  TΔSsol0: 3.537 kcal/mol
  ΔGsol0: 8.222 kcal/mol
  ζTSsolv: 37.96%
[1]; Table S6, n-hexane, 298.15 K
  TΔSsol0: 3.59 kcal/mol
  ΔGsol0: 8.174 kcal/mol
  ΔSsol0: 50.70 J∙mol-1·K-1
  ζHsolv: 62.20%
  −TΔSsolv0: 10.97 kcal/mol
  −ΔSsolv0: 153.88 J∙mol-1·K-1
[1]; Table S6, n-hexane, 303.15 K
  TΔSsol0: 3.681 kcal/mol
  ΔGsol0: 8.078 kcal/mol
  ΔSsol0: 50.81 J∙mol-1·K-1
  ζTSsolv: 37.65%
  −ΔSsolv0: 150.42 J∙mol-1·K-1
[1]; Table S6, n-hexane, 308.15 K
  TΔSsol0: 3.738 kcal/mol
  ΔGsol0: 8.021 kcal/mol
  ΔSsol0: 50.75 J∙mol-1·K-1
  ζTSsolv: 37.53%
  −TΔSsolv0: 10.84 kcal/mol
  −ΔGsolv0: 7.204 kcal/mol
  −ΔSsolv0: 147.20 J∙mol-1·K-1
[1]; Table S6, n-hexane, 313.15 K
  TΔSsol0: 3.793 kcal/mol
  ΔGsol0: 7.966 kcal/mol
  ζTSsolv: 37.41%
  −TΔSsolv0: 10.79 kcal/mol
  −ΔGsolv0: 7.259 kcal/mol
[1]; Table S6, n-hexane, 318.15 K
  TΔSsol0: 3.841 kcal/mol
  ΔGsol0: 7.918 kcal/mol
  ΔSsol0: 50.50 J∙mol-1·K-1
  ζHsolv: 62.69%
  −TΔSsolv0: 10.74 kcal/mol
  −ΔGsolv0: 7.306 kcal/mol
  −ΔSsolv0: 141.22 J∙mol-1·K-1
[1]; [5]
  ΔHsol0: 11.8 kcal/mol
  −ΔHsolv0: 18 kcal/mol
[1]; Table S6, water, 293.15 K
  ζHsolv: 58.17%
[1]; Table S6, water, 298.15 K
  ζHsolv: 58.17%
  −ΔSsolv0: 211.97 J∙mol-1·K-1
[1]; Table S6, water, 303.15 K
  ζHsolv: 58.17%
[1]; Table S6, water, 308.15 K
  ζHsolv: 58.13%
  −TΔSsolv0: 15.13 kcal/mol
  −ΔGsolv0: 5.877 kcal/mol
  −ΔSsolv0: 205.45 J∙mol-1·K-1
[1]; Table S6, water, 313.15 K
  ζHsolv: 58.12%
  −TΔSsolv0: 15.14 kcal/mol
  −ΔGsolv0: 5.872 kcal/mol
[1]; [6]
  ΔHsol0: 8.8 kcal/mol
  −ΔHsolv0: 21 kcal/mol
[1]; ethanol, 298.15 K
  TΔSsol0: 3.04 kcal/mol
  ΔGsol0: 3.87 kcal/mol
  ΔHsol0: 6.91 ± 0.22 kcal/mol
  ΔSsol0: 42.6 ± 5.1 J∙mol^−1·K^−1
  ζHsolv: 66.5%
  ζTSsolv: 33.5%
  −TΔSsolv0: 11.5 kcal/mol
  −ΔGsolv0: 11.4 kcal/mol
  −ΔHsolv0: 22.9 kcal/mol
  −ΔSsolv0: 162.0 J∙mol^−1·K^−1
[1]; n-hexane, 298.15 K
  TΔSsol0: 3.59 kcal/mol
  ΔGsol0: 8.17 kcal/mol
  ΔHsol0: 11.8 ± 0.17 kcal/mol
  ΔSsol0: 50.3 ± 3.4 J∙mol^−1·K^−1
  ζHsolv: 62.1%
  ζTSsolv: 37.9%
  −TΔSsolv0: 11 kcal/mol
  −ΔGsolv0: 7.05 kcal/mol
  −ΔHsolv0: 18 kcal/mol
  −ΔSsolv0: 154.3 J∙mol^−1·K^−1
[1]; water, 298.15 K
  TΔSsol0: -0.526 kcal/mol
  ΔGsol0: 9.32 kcal/mol
  ΔHsol0: 8.8 ± 0.14 kcal/mol
  ΔSsol0: −7.4 ± 0.3 J∙mol^−1·K^−1
  ζHsolv: 58.2%
  ζTSsolv: 41.8%
  −TΔSsolv0: 15.1 kcal/mol
  −ΔGsolv0: 5.9 kcal/mol
  −ΔHsolv0: 21 kcal/mol
  −ΔSsolv0: 212.0 J∙mol^−1·K^−1
[2]
  ΔGtr: −4.8 kJ⋅mol^−1
